# Columns and labels:
# Experiment in all cases: relative viability (nuclei count vs DMSO), 5 days (fraction); higher = more cells survive
# [1] = compound: CS(=O)(=O)CCNCc1ccc(-c2ccc3ncnc(Nc4ccc(OCc5cccc(F)c5)c(Cl)c4)c3c2)o1 [Lapatinib] + Nc1nc2[nH]cc(CCc3ccc(C(=O)N[C@@H](CCC(=O)O)C(=O)O)cc3)c2c(=O)[nH]1 [Pemetrexed] (partner 0.2 µM)
# Outline: (§1)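 One day after seeding in 1536-well plates, lung cancer cell lines were dosed by pin tool. Dosing was either single-drug or a fixed anchor-drug dose plus five library-drug doses (not always all listed) in √10 steps. After 5 days, nuclei were stained in one fix-and-stain step and counted on 4× images, and relative viability is the nuclei count of treated wells over that of vehicle wells, given as the median of duplicate plates.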
# [2] = compound: CS(=O)(=O)CCNCc1ccc(-c2ccc3ncnc(Nc4ccc(OCc5cccc(F)c5)c(Cl)c4)c3c2)o1 [Lapatinib] + CC(C)C[C@H](NC(=O)[C@H](Cc1ccccc1)NC(=O)c1cnccn1)B(O)O [Bortezomib] (partner 0.002 µM)
# Outline: as §1
# [3] = compound: CS(=O)(=O)CCNCc1ccc(-c2ccc3ncnc(Nc4ccc(OCc5cccc(F)c5)c(Cl)c4)c3c2)o1 [Lapatinib] + Cc1nc(Nc2ncc(C(=O)Nc3c(C)cccc3Cl)s2)cc(N2CCN(CCO)CC2)n1 [Dasatinib] (partner 0.075 µM)
# Outline: as §1
# [4] = compound: CS(=O)(=O)CCNCc1ccc(-c2ccc3ncnc(Nc4ccc(OCc5cccc(F)c5)c(Cl)c4)c3c2)o1 [Lapatinib] + N=C(N)NC(=N)NCCc1ccccc1 [Phenformin] (partner 250 µM)
# Outline: as §1
Cell Line,relative viability ([1]; first compound 0.06325 µM),relative viability ([1]; first compound 0.2 µM),relative viability ([1]; first compound 0.6325 µM),relative viability ([1]; first compound 2 µM),relative viability ([2]; first compound 0.06325 µM),relative viability ([2]; first compound 0.2 µM),relative viability ([2]; first compound 0.6325 µM),relative viability ([2]; first compound 2 µM),relative viability ([3]; first compound 0.06325 µM),relative viability ([3]; first compound 0.2 µM),relative viability ([3]; first compound 0.6325 µM),relative viability ([3]; first compound 2 µM),relative viability ([4]; first compound 0.06325 µM),relative viability ([4]; first compound 0.2 µM),relative viability ([4]; first compound 0.6325 µM),relative viability ([4]; first compound 2 µM),relative viability ([2]; first compound 0.02 µM),relative viability ([1]; first compound 0.02 µM),relative viability ([3]; first compound 0.02 µM),relative viability ([4]; first compound 0.02 µM)
NCI-H1915,0.457,0.456,0.465,0.473,0.973,1.04,0.915,0.953,0.285,0.337,0.293,0.297,0.375,0.384,0.361,0.39,,,,
Calu-6,,,,,0.951,1.03,1.02,0.906,,,,,,,,,0.887,,,
LU99A,0.161,0.223,0.178,0.182,0.932,1.15,1.15,0.94,0.408,0.453,0.587,0.475,0.712,0.743,0.866,0.792,1.05,0.203,0.492,0.379
LOU-NH91,0.41,0.39,0.415,0.458,0.469,0.522,0.499,0.544,0.398,0.431,0.46,0.404,0.533,0.479,0.533,0.433,,0.377,0.365,0.463
NCI-H1993,,0.578,0.607,0.543,,0.871,0.889,0.627,,0.55,0.516,0.563,,0.509,0.583,0.556,0.88,0.595,0.564,0.597
NCI-H1703,,,,,0.313,0.317,0.24,0.32,,,,,,,,,0.316,,,
NCI-H2405,0.977,,1.04,1.01,0.946,1.06,0.963,0.854,0.181,0.208,0.164,0.232,0.278,0.405,0.372,0.357,0.66,,0.215,0.321
NCI-H661,0.773,0.834,0.736,0.756,0.756,0.674,0.618,0.482,0.572,0.504,0.523,0.368,0.263,0.273,0.265,0.268,0.703,0.872,0.759,0.273
COR-L 105,1.16,0.953,0.68,0.619,0.512,0.637,0.524,0.378,0.238,0.277,0.232,0.205,0.336,0.418,0.289,0.275,0.503,1.09,0.266,0.486
NCI-H1437,0.302,0.279,0.289,0.329,0.46,0.421,0.394,0.39,0.245,0.382,0.304,0.345,0.278,0.258,0.303,0.253,0.523,0.303,0.28,0.289
NCI-H1563,0.862,0.652,0.843,0.666,0.741,0.826,0.902,0.834,0.405,0.425,0.491,0.435,0.645,0.69,0.76,0.688,0.952,0.651,0.505,0.626
NCI-H2009,1.02,1.05,0.98,0.998,0.968,1.06,1.04,1.08,0.244,0.358,0.33,0.286,0.484,0.507,0.513,0.457,0.754,0.972,0.282,0.528
NCI-H23,,0.782,0.58,0.529,,1.02,1.07,0.813,,0.688,0.762,0.738,,0.792,0.805,0.761,,,,
201T,0.288,0.298,0.359,0.326,1.12,1.08,1.08,1.14,0.382,0.596,0.62,0.599,0.343,0.438,0.44,0.431,1.06,0.377,0.566,0.387
NCI-H520,0.636,0.604,0.712,0.489,0.388,0.59,0.54,0.416,0.161,0.265,0.178,0.187,0.596,0.542,0.653,0.638,0.699,0.741,0.235,0.516
NCI-H1623,,,,,,,,,0.491,,0.578,0.21,0.494,,0.659,0.261,,,0.541,0.546
A-427,0.949,0.946,1.06,0.963,0.953,1.05,0.901,0.976,0.664,0.825,0.745,0.692,0.279,0.346,0.317,0.367,,0.928,,
NCI-H1975,0.298,0.287,0.283,0.284,0.358,0.407,0.405,0.32,0.316,0.378,0.41,0.219,0.362,0.385,0.399,0.385,0.467,0.316,0.417,0.413
NCI-H647,0.149,0.162,0.168,0.158,0.708,1.11,1.13,0.871,0.155,0.167,0.197,0.201,0.416,0.517,0.631,0.219,0.909,0.176,0.158,0.352
NCI-H3122,0.199,0.206,0.197,0.193,1,0.965,0.972,1.02,0.407,0.85,0.675,0.859,0.379,0.392,0.385,0.33,0.927,0.212,0.736,
A549,,,,,,,,,,,,,,0.192,0.137,0.112,,,,
NCI-H1299,,,,,1.04,1.02,1.01,0.996,,,,,,,,,1.05,,,

Cell Line,relative viability ([1]; first compound 0.06325 µM),relative viability ([1]; first compound 0.2 µM),relative viability ([1]; first compound 0.6325 µM),relative viability ([1]; first compound 2 µM),relative viability ([2]; first compound 0.06325 µM),relative viability ([2]; first compound 0.2 µM),relative viability ([2]; first compound 0.6325 µM),relative viability ([2]; first compound 2 µM),relative viability ([3]; first compound 0.06325 µM),relative viability ([3]; first compound 0.2 µM),relative viability ([3]; first compound 0.6325 µM),relative viability ([3]; first compound 2 µM),relative viability ([4]; first compound 0.06325 µM),relative viability ([4]; first compound 0.2 µM),relative viability ([4]; first compound 0.6325 µM),relative viability ([4]; first compound 2 µM),relative viability ([2]; first compound 0.02 µM),relative viability ([1]; first compound 0.02 µM),relative viability ([3]; first compound 0.02 µM),relative viability ([4]; first compound 0.02 µM)
HCC-44,0.653,0.651,0.614,0.685,0.855,0.901,0.953,0.8,,,,,0.189,0.211,0.172,0.235,0.762,0.681,,
NCI-H838,0.244,0.258,0.311,0.251,0.461,0.843,0.829,0.674,,0.304,0.276,0.247,0.381,0.675,0.683,0.511,1.08,0.275,0.263,0.685
NCI-H2342,0.712,0.723,0.776,0.714,,,,,0.293,0.301,0.303,0.263,0.557,0.574,0.51,0.489,,0.576,0.262,0.511
NCI-H460,0.0621,0.0581,0.0692,0.0618,1.02,1.15,0.984,1.11,0.345,0.372,0.624,0.452,0.48,0.52,0.504,0.446,1.02,0.0637,0.496,0.487
CAL-12T,1.31,1.37,1.04,0.744,0.765,0.822,0.743,0.649,0.216,0.271,0.236,0.131,0.474,0.5,0.404,0.337,,1.16,,
NCI-H1650,0.377,0.395,0.337,0.345,0.206,0.223,0.192,0.243,0.253,0.264,0.38,0.245,0.313,0.461,0.31,0.307,0.203,0.364,0.263,0.442
NCI-H650,0.881,0.913,1.08,0.963,0.662,0.653,0.86,0.841,0.389,0.404,0.458,0.439,0.467,0.428,0.456,0.473,,,,
NCI-H727,,,,,0.78,1.04,1.09,0.801,,0.317,0.338,0.359,,0.536,0.511,0.508,0.758,,,
NCI-H522,0.794,0.875,0.994,0.781,,,,,0.907,0.901,0.67,0.787,0.557,0.554,0.674,0.546,,,,
SW 900,0.432,0.494,0.471,0.45,,,,,0.435,0.479,0.595,0.373,0.484,0.554,0.554,0.531,,,,
NCI-H1944,0.493,0.551,0.523,0.41,,,,,0.153,0.204,0.243,0.207,0.14,0.188,0.193,0.186,,0.619,0.185,0.178
IA-LM,,,,,0.788,0.893,0.88,0.839,,,,,,,,,0.787,,,
NCI-H2170,0.249,0.271,0.274,0.198,,,,,0.272,0.276,0.419,0.165,0.408,0.455,0.359,0.198,,0.272,0.394,0.351
NCI-H1648,0.62,0.789,0.636,0.64,,,,,,,,,,,,,,,,
LK-2,,0.261,,0.264,,,,,,0.264,0.283,0.35,,0.606,0.663,0.419,,0.137,,
NCI-H358,0.157,0.16,0.167,0.189,,,,,0.0919,0.127,0.0982,0.14,0.107,0.222,0.215,0.171,,0.173,0.138,0.25
SK-MES-1,0.93,0.943,0.997,0.405,,,,,0.143,0.157,0.19,0.126,0.684,0.684,0.563,0.306,,0.824,0.243,0.62
NCI-H1793,0.602,0.889,0.658,0.535,,,,,0.339,0.398,0.319,0.316,0.313,0.265,0.329,0.225,,,,
ABC-1,,,,,0.362,0.324,0.434,0.333,0.584,0.513,0.662,0.56,0.25,0.223,0.215,0.21,,,0.538,0.25
NCI-H1395,0.938,0.87,0.887,0.793,,,,,0.39,0.375,0.439,0.425,0.431,0.442,0.444,0.432,,,0.43,0.45
EBC-1,,,,,0.561,0.539,0.534,0.455,,,,,,,,,0.542,,,
